Assay results taken from patent publication US20220323406A1, “METHODS AND COMPOSITIONS FOR DIFFERENTIATING STEM CELLS” (Massachusetts Institute of Technology, priority 2019, published 2022).
Structures can show the parent of a compound that is named as a salt.

Experiments:
[1] = tested on: ENR+CD organoids (ISC to Paneth cell differentiation); assay: Primary screen: basal (non-stimulated) lysozyme secretion LYZ.NS, 2.5-D 384-well ENR+CD organoid differentiation; assay type: cell-based, mouse; conditions: primary screen; for Z.LYZ.NS: standard z score
From the text: (§1) High-throughput screening.

[2] = tested on: ENR+CD organoids (ISC to Paneth cell differentiation); assay: Primary screen: CCh-stimulated lysozyme secretion LYZ.S, 2.5-D 384-well ENR+CD organoid differentiation; assay type: cell-based, mouse; conditions: primary screen
From the text: as §1

ENR+CD organoids = assay: Primary screen: ATP (CellTiter-Glo 3D, CTG) cell number/viability, 2.5-D 384-well ENR+CD organoids; conditions: primary screen;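 further: compounds given at plating and again on day 3 over a 6-day differentiation from ENR+CV stem-cell-enriched precursors, ATP measured on day 6, plate median as control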
[3] = 1st dose row of the treatment (0.08 uM by row order; dose not reprinted)
[4] = 2nd dose row of the treatment (0.40 uM by row order; dose not reprinted)
[5] = 3rd dose row of the treatment (2.00 uM by row order; dose not reprinted)
[6] = 4th dose row of the treatment (10.00 uM by row order; dose not reprinted)
[7] = dose 0.08 uM, FC relative to plate median
[8] = dose 0.40 uM, FC relative to plate median
[9] = dose 2.00 uM, FC relative to plate median
[10] = dose 10.00 uM, FC relative to plate median

CCOC(=O)C1=C(COCCN)NC(C)=C(C(=O)OC)C1c1ccccc1Cl (stereo not drawn) [Amlodipine]
Dose.FC.LYZ.NS ([1]; dose 0.08 uM): 0.026 log2 fold change | Z.LYZ.NS (standard z score) ([1]; dose 0.08 uM): 0.228 | Dose.FC.LYZ.NS ([1]; dose 0.40 uM): 0.024 log2 fold change | Z.LYZ.NS (standard z score) ([1]; dose 0.40 uM): 0.210 | Dose.FC.LYZ.NS ([1]; dose 2.00 uM): −0.065 log2 fold change | Z.LYZ.NS (standard z score) ([1]; dose 2.00 uM): −0.568 | Dose.FC.LYZ.NS ([1]; dose 10.00 uM): −0.135 log2 fold change | Z.LYZ.NS (standard z score) ([1]; dose 10.00 uM): −1.172 | Dose.FC.LYZ.S ([2]; dose 0.08 uM): −0.042 log2 fold change | Dose.FC.LYZ.S ([2]; dose 0.40 uM): −0.015 log2 fold change | Dose.FC.LYZ.S ([2]; dose 2.00 uM): −0.122 log2 fold change | Dose.FC.LYZ.S ([2]; dose 10.00 uM): −0.155 log2 fold change | Dose.FC.CTG (ENR+CD organoids; dose 0.08 uM): −0.351 log2 fold change | Dose.FC.CTG (ENR+CD organoids; dose 0.40 uM): −0.363 log2 fold change | Dose.FC.CTG (ENR+CD organoids; dose 2.00 uM): −0.372 log2 fold change | Dose.FC.CTG (ENR+CD organoids; dose 10.00 uM): −0.421 log2 fold change

O=C(O)C(Cc1ccccc1[N+](=O)[O-])=NNc1nc(-c2ccc(Cl)c(Cl)c2)cs1 (mixture of isomers) [4EGI-1]
SSMD.LYZ.NS_Rep (strictly standardized mean difference) [1, 3]: 0.378 | SSMD.LYZ.NS_Rep (strictly standardized mean difference) [1, 4]: 0.264 | SSMD.LYZ.NS_Rep (strictly standardized mean difference) [1, 5]: 0.252 | SSMD.LYZ.NS_Rep (strictly standardized mean difference) [1, 6]: −0.257 | Dose.FC.LYZ.NS ([1]; dose 0.08 uM): 0.110 log2 fold change | Z.LYZ.NS (standard z score) ([1]; dose 0.08 uM): 0.956 | Dose.FC.LYZ.NS ([1]; dose 0.40 uM): 0.036 log2 fold change | Z.LYZ.NS (standard z score) ([1]; dose 0.40 uM): 0.315 | Dose.FC.LYZ.NS ([1]; dose 2.00 uM): 0.069 log2 fold change | Z.LYZ.NS (standard z score) ([1]; dose 2.00 uM): 0.597 | Dose.FC.LYZ.NS ([1]; dose 10.00 uM): −0.034 log2 fold change | Z.LYZ.NS (standard z score) ([1]; dose 10.00 uM): −0.300 | SSMD.LYZ.S_Rep (strictly standardized mean difference) [2, 3]: −0.264 | Z.LYZ.S (standard z score) [2, 3]: −0.236 | SSMD.LYZ.S_Rep (strictly standardized mean difference) [2, 4]: 0.326 | Z.LYZ.S (standard z score) [2, 4]: 0.352 | SSMD.LYZ.S_Rep (strictly standardized mean difference) [2, 5]: −0.328 | Z.LYZ.S (standard z score) [2, 5]: −0.380 | SSMD.LYZ.S_Rep (strictly standardized mean difference) [2, 6]: 0.189 | Z.LYZ.S (standard z score) [2, 6]: 0.366 | Dose.FC.LYZ.S ([2]; dose 0.08 uM): −0.037 log2 fold change | Dose.FC.LYZ.S ([2]; dose 0.40 uM): 0.054 log2 fold change | Dose.FC.LYZ.S ([2]; dose 2.00 uM): −0.059 log2 fold change | Dose.FC.LYZ.S ([2]; dose 10.00 uM): 0.057 log2 fold change | SSMD.CTG.Rep (strictly standardized mean difference) (ENR+CD organoids; [3]): −0.352 | SSMD.CTG.Rep (strictly standardized mean difference) (ENR+CD organoids; [4]): −0.158 | SSMD.CTG.Rep (strictly standardized mean difference) (ENR+CD organoids; [5]): 0.407 | SSMD.CTG.Rep (strictly standardized mean difference) (ENR+CD organoids; [6]): −0.283 | Dose.FC.CTG (ENR+CD organoids; dose 0.08 uM): −0.160 log2 fold change | Z.CTG (standard z score) (ENR+CD organoids; dose 0.08 uM): −0.383 | Dose.FC.CTG (ENR+CD organoids; dose 0.40 uM): −0.131 log2 fold change | Z.CTG (standard z score) (ENR+CD organoids; dose 0.40 uM): −0.314 | Dose.FC.CTG (ENR+CD organoids; dose 2.00 uM): 0.127 log2 fold change | Z.CTG (standard z score) (ENR+CD organoids; dose 2.00 uM): 0.304 | Dose.FC.CTG (ENR+CD organoids; dose 10.00 uM): −0.109 log2 fold change | Z.CTG (standard z score) (ENR+CD organoids; dose 10.00 uM): −0.261

Cn1c(=O)cc(N2CCC[C@@H](N)C2)n(Cc2cc(F)ccc2C#N)c1=O [Trelagliptin]
Dose.FC.LYZ.NS ([1]; dose 0.08 uM): 0.007 log2 fold change | Z.LYZ.NS (standard z score) ([1]; dose 0.08 uM): 0.059 | Dose.FC.LYZ.NS ([1]; dose 0.40 uM): −0.019 log2 fold change | Z.LYZ.NS (standard z score) ([1]; dose 0.40 uM): −0.166 | Dose.FC.LYZ.NS ([1]; dose 2.00 uM): −0.033 log2 fold change | Z.LYZ.NS (standard z score) ([1]; dose 2.00 uM): −0.292 | Dose.FC.LYZ.NS ([1]; dose 10.00 uM): −0.050 log2 fold change | Z.LYZ.NS (standard z score) ([1]; dose 10.00 uM): −0.433 | Dose.FC.LYZ.S ([2]; dose 0.08 uM): 0.020 log2 fold change | Dose.FC.LYZ.S ([2]; dose 0.40 uM): 0.058 log2 fold change | Dose.FC.LYZ.S ([2]; dose 2.00 uM): −0.022 log2 fold change | Dose.FC.LYZ.S ([2]; dose 10.00 uM): −0.109 log2 fold change | Dose.FC.CTG (ENR+CD organoids; dose 0.08 uM): 0.202 log2 fold change | Dose.FC.CTG (ENR+CD organoids; dose 0.40 uM): −0.076 log2 fold change | Dose.FC.CTG (ENR+CD organoids; dose 2.00 uM): 0.050 log2 fold change | Dose.FC.CTG (ENR+CD organoids; dose 10.00 uM): 0.135 log2 fold change

CC(C)NCC(O)COc1cccc2ccccc12 (stereo not drawn) [Propranolol HCl]
Dose.FC.LYZ.NS [1, 7]: 0.048 log2 fold change | Z.LYZ.NS ([1]; dose 0.08 uM): 0.418 | Dose.FC.LYZ.NS [1, 8]: 0.074 log2 fold change | Z.LYZ.NS ([1]; dose 0.40 uM): 0.642 | Dose.FC.LYZ.NS [1, 9]: 0.164 log2 fold change | Z.LYZ.NS ([1]; dose 2.00 uM): 1.427 | Dose.FC.LYZ.NS [1, 10]: 0.032 log2 fold change | Z.LYZ.NS ([1]; dose 10.00 uM): 0.276 | Dose.FC.LYZ.S [2, 7]: 0.173 log2 fold change | Dose.FC.LYZ.S [2, 8]: 0.204 log2 fold change | Dose.FC.LYZ.S [2, 9]: 0.091 log2 fold change | Dose.FC.LYZ.S [2, 10]: 0.040 log2 fold change | Dose.FC.CTG (ENR+CD organoids; [7]): 0.066 log2 fold change | Dose.FC.CTG (ENR+CD organoids; [8]): 0.054 log2 fold change | Dose.FC.CTG (ENR+CD organoids; [9]): 0.117 log2 fold change | Dose.FC.CTG (ENR+CD organoids; [10]): 0.168 log2 fold change
